One series relates to virus H1N1 A/Weiss/43. Kind of series: microbe, parasite or virus in culture. Format: cell-based. The conditions noted are these: 120 h; inhibition of CPE of influenza virus A/Weiss/43(H1N1) in MDCK cells, 5 days, CCK-8.
A further series is described as follows: in vivo. As to conditions: SD, rat.

Experimental for in vivo: Pharmacokinetic characteristics of the compounds of the invention in SD rats were evaluated. The compounds disclosed herein were administered in form of a saline solution containing 5% DMSO, 5% Kolliphor HS 15 and 90% Saline. For intravenous administration (iv), the animals were administered with a dose of 1 mg/kg, and blood samples (0.3 mL) were collected at the time points of 0.083, 0.25, 0.5, 1.0, 2.0, 5.0, 7.0 and 24 h after drug administration, then each blood sample was processed to separate plasma by centrifugation at 3000 rpm or 4000 rpm for 10 minutes. For oral administration (po), the animals were administered with a dose of 5 mg/kg, and blood samples (0.3 mL) were collected at the time points of 0.25, 0.5, 1.0, 2.0, 5.0, 7.0 and 24 h after drug administration, then each blood sample was processed to separate plasma by centrifugation at 3000 rpm or 4000 rpm for 10 minutes. Plasma samples were collected and stored at −20° C. or −70° C. until LC/MS/MS analysis.

In turn, `O=C(O)C1C2CCC(CC2)C1Nc1cc(-c2ccco2)nc(-c2c[nH]c3ncncc23)n1` (racemic) [Example 2, (+/−)-trans-3-((6-(furan-2-yl)-2-(7H-pyrrolo[2,3-d]pyrimidin-5-yl)pyrimidin-4-yl)amino)bicyclo[2.2.2]octane-2-carboxylic acid] returned an EC50 with virus H1N1 A/Weiss/43 of 5.19 nM. In “in vivo” (iv, 1 mg/kg), this compound yielded an AUC(0-inf) of 4020 ng·h/mL, an AUC(0-t) of 3190 ng·h/mL and a clearance of 10.7 mL/min/kg. For the same compound, in “in vivo” (po, 5 mg/kg), the total exposure AUC(0-inf) was 12900 ng·h/mL and the AUC(0-t) amounted to 12700 ng·h/mL.

`Cn1ccc2c(NC3C4CCC(CC4)C3C(=O)O)nc(-c3c[nH]c4ncncc34)nc21` (racemic) [Example 3, (+/−)-trans-3-((7-methyl-7H,7′H-[2,5′-bipyrrolo[2,3-d]pyrimidin]-4-yl)amino)bicyclo[2.2.2]octane-2-carboxylic acid]: the EC50 in the series on virus H1N1 A/Weiss/43 is 9.41 nM. In addition, in the series “in vivo” (iv, 1 mg/kg), the AUC(0-inf) worked out at 4320 ng·h/mL, the AUC(0-t) stood at 4280 ng·h/mL and the clearance stood at 9.8 mL/min/kg. In “in vivo” (po, 5 mg/kg), the AUC(0-inf) is 15700 ng·h/mL and the AUC(0-t) stood at 15600 ng·h/mL.

For the compound `CC(C)n1ccc2c(NC3C4CCC(CC4)C3C(=O)O)nc(-c3c[nH]c4ncncc34)nc21` (racemic) [Example 4, (+/−)-trans-3-((7-isopropyl-7H,7′H-[2,5′-bipyrrolo[2,3-d]pyrimidin]-4-yl)amino) bicyclo[2.2.2]octane-2-carboxylic acid], in the series with virus H1N1 A/Weiss/43, the response was half-maximal at 6.56 nM (EC50).

The compound `O=C(O)C1C2CCC(CC2)C1Nc1nc(-c2c[nH]c3ncncc23)nc(-c2ccco2)c1F` (racemic) [Example 7, (+/−)-trans-3-((5-fluoro-6-(furan-2-yl)-2-(7H-pyrrolo[2,3-d]pyrimidin-5-yl)pyrimidin-4-yl)amino)bicyclo[2.2.2]octane-2-carboxylic acid] gave a 50% effective concentration (EC50) with virus H1N1 A/Weiss/43 of 4.02 nM.

For the compound `O=C(O)C1C2CCC(CC2)C1Nc1cc(-c2ccoc2)nc(-c2c[nH]c3ncncc23)n1` (racemic) [Example 9, (+/−)-trans-3-((6-(furan-3-yl)-2-(7H-pyrrolo[2,3-d]pyrimidin-5-yl)pyrimidin-4-yl)amino)bicyclo[2.2.2]octane-2-carboxylic acid], a half-maximal response in the series on virus H1N1 A/Weiss/43 (EC50) required 9.57 nM.

`O=C(O)C1C2CCC(CC2)C1Nc1cc(-c2cc3ccccc3o2)nc(-c2c[nH]c3ncncc23)n1` (racemic) [Example 11, (+/−)-trans-3-((6-(benzofuran-2-yl)-2-(7H-pyrrolo[2,3-d]pyrimidin-5-yl)pyrimidin-4-yl)amino)bicyclo[2.2.2]octane-2-carboxylic acid] returned an EC50 with virus H1N1 A/Weiss/43 of 14.4 nM.

For the compound `O=C(O)C1C2CCC(CC2)C1Nc1cc(C#Cc2ccccc2)nc(-c2c[nH]c3ncncc23)n1` (racemic) [Example 12, (+/−)-trans-3-((6-(phenylethynyl)-2-(7H-pyrrolo[2,3-d]pyrimidin-5-yl)pyrimidin-4-yl)amino)bicyclo[2.2.2]octane-2-carboxylic acid], in the series with virus H1N1 A/Weiss/43, the 50% effective concentration (EC50) is 7.24 nM.

`O=C(O)C1C2CCC(CC2)C1Nc1nc(-c2c[nH]c3ncncc23)nc(-c2ccccc2)c1F` (racemic) [Example 13, (+/−)-trans-3-((5-fluoro-6-phenyl-2-(7H-pyrrolo[2,3-d]pyrimidin-5-yl)pyrimidin-4-yl)amino)bicyclo[2.2.2]octane-2-carboxylic acid]: the EC50 with virus H1N1 A/Weiss/43 was 8.68 nM.

Turning to `Cn1cc(-c2cc(NC3C4CCC(CC4)C3C(=O)O)nc(-c3c[nH]c4ncncc34)n2)cn1` (racemic) [Example 14, (+/−)-trans-3-((6-(1-methyl-1H-pyrazol-4-yl)-2-(7H-pyrrolo[2,3-d]pyrimidin-5-yl)pyrimidin-4-yl)amino)bicyclo[2.2.2]octane-2-carboxylic acid], the EC50 in the series on virus H1N1 A/Weiss/43 worked out at 6.32 nM.

In the series with virus H1N1 A/Weiss/43, `O=C(O)C1C2CCC(CC2)C1Nc1nc(-c2c[nH]c3ncncc23)nc2ccccc12` (racemic) [Example 18, (+/−)-trans-3-((2-(7H-pyrrolo[2,3-d]pyrimidin-5-yl)quinazolin-4-yl)amino) bicyclo[2.2.2]octane-2-carboxylic acid] gave an EC50 of 17.5 nM.

For `O=C(O)C1C2CCC(CC2)C1Nc1nc(-c2c[nH]c3ncncc23)nc2sccc12` (racemic) [Example 20, (+/−)-trans-3-((2-(7H-pyrrolo[2,3-d]pyrimidin-5-yl)thieno[2,3-d]pyrimidin-4-yl)amino)bicyclo[2.2.2]octane-2-carboxylic acid], the EC50 in the series with virus H1N1 A/Weiss/43 was 19.2 nM.

`O=C(O)C1C2CCC(CC2)C1Nc1nc(-c2c[nH]c3ncncc23)ncc1F` (stereo not shown) [Control compound A, reference compound] returned a concentration for a half-maximal effect (EC50) in the series on virus H1N1 A/Weiss/43 of more than 100000 nM.
